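A five-concentration, 48-hour dose response in 96-well plates underlies each endpoint, interpolated linearly between surrounding concentrations. TGI marks complete inhibition of growth.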
How the values were obtained:
Assay in all cases: inhibition of tumour cell growth, NCI panel, 48 h
[1] = tested on: 786-0 renal
[2] = tested on: A498 renal
[3] = tested on: A549 NSCLC
[4] = tested on: ACHN renal
[5] = tested on: BT-549 breast
[6] = tested on: CAKI-1 renal
[7] = tested on: CCRF-CEM leukemia
[8] = tested on: COLO 205 colon
[9] = tested on: DU-145 prostate
[10] = tested on: EKVX NSCLC
[11] = tested on: HCC-2998 colon
[12] = tested on: HCT-116 colon
[13] = tested on: HCT-15 colon
[14] = tested on: HL-60(TB) leukemia
[15] = tested on: HOP-62 NSCLC
[16] = tested on: HOP-92 NSCLC
[17] = tested on: HS 578T breast
[18] = tested on: HT29 colon
[19] = tested on: IGROV1 ovarian
[20] = tested on: K-562 leukemia
[21] = tested on: KM12 colon
[22] = tested on: LOX IMVI melanoma
[23] = tested on: M14 melanoma
[24] = tested on: MALME-3M melanoma
[25] = tested on: MCF7 breast
[26] = tested on: MDA-MB-231 breast
[27] = tested on: MDA-MB-435
[28] = tested on: MDA-N
[29] = tested on: MOLT-4 leukemia
[30] = tested on: NCI-H226 lung
[31] = tested on: NCI-H23 lung
[32] = tested on: NCI-H460 lung
[33] = tested on: NCI-H522 lung
[34] = tested on: NCI/ADR-RES ovarian
[35] = tested on: OVCAR-3 ovarian
[36] = tested on: OVCAR-4 ovarian
[37] = tested on: OVCAR-5 ovarian
[38] = tested on: OVCAR-8 ovarian
[39] = tested on: PC-3 prostate
[40] = tested on: RPMI-8226 leukemia
[41] = tested on: RXF 393 renal
[42] = tested on: SF-268 CNS
[43] = tested on: SF-295 CNS
[44] = tested on: SF-539 CNS
[45] = tested on: SK-MEL-2 melanoma
[46] = tested on: SK-MEL-28 melanoma
[47] = tested on: SK-MEL-5 melanoma
[48] = tested on: SK-OV-3 ovarian
[49] = tested on: SN12C renal
[50] = tested on: SNB-19 CNS
[51] = tested on: SNB-75 CNS
[52] = tested on: SR leukemia
[53] = tested on: SW-620 colon
[54] = tested on: T-47D breast
[55] = tested on: TK-10 renal
[56] = tested on: U251 CNS
[57] = tested on: UACC-257 melanoma
[58] = tested on: UACC-62 melanoma
[59] = tested on: UO-31 renal
[60] = tested on: DLD-1 colon
[61] = tested on: DMS 114 small cell lung
[62] = tested on: DMS 273 small cell lung
[63] = tested on: HOP-18 NSCLC
[64] = tested on: KM20L2 colon
[65] = tested on: LXFL 529 NSCLC
[66] = tested on: M19-MEL melanoma
[67] = tested on: SNB-78 CNS
[68] = tested on: XF 498 CNS

O=C(Nc1c[nH]c(=O)[nH]c1=O)Oc1ccccc1
TGI [1]: > 100 µM | TGI [2]: > 100 µM | TGI [3]: > 100 µM | TGI [4]: > 100 µM | TGI [5]: > 100 µM | TGI [6]: > 100 µM | TGI [7]: > 100 µM | TGI [8]: > 100 µM | TGI [9]: > 100 µM | TGI [10]: > 100 µM | TGI [11]: > 100 µM | TGI [12]: > 100 µM | TGI [13]: > 100 µM | TGI [14]: 33.5 µM | TGI [15]: > 100 µM | TGI [16]: > 100 µM | TGI [17]: > 100 µM | TGI [18]: > 100 µM | TGI [19]: > 100 µM | TGI [20]: > 100 µM | TGI [21]: > 100 µM | TGI [22]: > 100 µM | TGI [23]: > 100 µM | TGI [24]: > 100 µM | TGI [25]: > 100 µM | TGI [26]: > 100 µM | TGI [27]: > 100 µM | TGI [28]: > 100 µM | TGI [29]: > 100 µM | TGI [30]: > 100 µM | TGI [31]: > 100 µM | TGI [32]: > 100 µM | TGI [33]: > 100 µM | TGI [34]: > 100 µM | TGI [35]: > 100 µM | TGI [36]: > 100 µM | TGI [37]: > 100 µM | TGI [38]: > 100 µM | TGI [39]: > 100 µM | TGI [40]: > 100 µM | TGI [41]: > 100 µM | TGI [42]: > 100 µM | TGI [43]: > 100 µM | TGI [44]: > 100 µM | TGI [45]: > 100 µM | TGI [46]: > 100 µM | TGI [47]: > 100 µM | TGI [48]: > 100 µM | TGI [49]: > 100 µM | TGI [50]: > 100 µM | TGI [51]: > 100 µM | TGI [52]: > 100 µM | TGI [53]: > 100 µM | TGI [54]: > 100 µM | TGI [55]: > 100 µM | TGI [56]: > 100 µM | TGI [57]: > 100 µM | TGI [58]: > 100 µM | TGI [59]: > 100 µM

COC(OC)c1cccc2c1C(=O)CCC1(CC2)OCCCCO1
TGI [1]: > 100 µM | TGI [2]: > 100 µM | TGI [3]: > 100 µM | TGI [4]: > 100 µM | TGI [6]: > 100 µM | TGI [7]: > 100 µM | TGI [8]: > 100 µM | TGI [60]: > 100 µM | TGI [61]: > 100 µM | TGI [62]: > 100 µM | TGI [11]: > 100 µM | TGI [12]: > 100 µM | TGI [13]: > 100 µM | TGI [14]: > 100 µM | TGI [63]: > 100 µM | TGI [15]: > 100 µM | TGI [18]: > 100 µM | TGI [19]: > 100 µM | TGI [20]: > 100 µM | TGI [21]: > 100 µM | TGI [64]: > 100 µM | TGI [22]: > 100 µM | TGI [65]: > 100 µM | TGI [23]: > 100 µM | TGI [66]: > 100 µM | TGI [24]: > 100 µM | TGI [29]: > 100 µM | TGI [30]: > 100 µM | TGI [31]: > 100 µM | TGI [32]: > 100 µM | TGI [33]: > 100 µM | TGI [35]: > 100 µM | TGI [36]: > 100 µM | TGI [37]: > 100 µM | TGI [38]: > 100 µM | TGI [40]: > 100 µM | TGI [41]: > 100 µM | TGI [42]: > 100 µM | TGI [43]: > 100 µM | TGI [44]: > 100 µM | TGI [45]: > 100 µM | TGI [46]: > 100 µM | TGI [47]: > 100 µM | TGI [48]: > 100 µM | TGI [49]: > 100 µM | TGI [50]: > 100 µM | TGI [51]: > 100 µM | TGI [67]: > 100 µM | TGI [53]: > 100 µM | TGI [55]: > 100 µM | TGI [56]: > 100 µM | TGI [57]: > 100 µM | TGI [58]: > 100 µM | TGI [59]: > 100 µM

N#Cc1sc2nc3c(c(-c4ccccc4)c2c1N)CCCC3
TGI [1]: > 100 µM | TGI [2]: > 100 µM | TGI [3]: > 100 µM | TGI [4]: > 100 µM | TGI [6]: > 100 µM | TGI [7]: > 100 µM | TGI [62]: > 100 µM | TGI [11]: > 100 µM | TGI [12]: > 100 µM | TGI [13]: > 100 µM | TGI [14]: > 100 µM | TGI [16]: > 100 µM | TGI [18]: > 100 µM | TGI [20]: > 100 µM | TGI [21]: > 100 µM | TGI [22]: > 100 µM | TGI [65]: > 100 µM | TGI [66]: > 100 µM | TGI [24]: > 100 µM | TGI [29]: > 100 µM | TGI [30]: > 100 µM | TGI [31]: > 100 µM | TGI [32]: > 100 µM | TGI [33]: > 100 µM | TGI [36]: > 100 µM | TGI [37]: > 100 µM | TGI [38]: > 100 µM | TGI [40]: > 100 µM | TGI [41]: > 100 µM | TGI [43]: 43.6 µM | TGI [44]: 56.2 µM | TGI [45]: > 100 µM | TGI [46]: > 100 µM | TGI [48]: > 100 µM | TGI [49]: > 100 µM | TGI [50]: > 100 µM | TGI [67]: > 100 µM | TGI [52]: > 100 µM | TGI [53]: > 100 µM | TGI [55]: > 100 µM | TGI [56]: > 100 µM | TGI [57]: > 100 µM | TGI [58]: > 100 µM | TGI [59]: > 100 µM | TGI [68]: 92.2 µM

Source: PubChem BioAssay (NCI)
